Experimental data: US8323956B2, “Distal tip of biosensor transducer comprising enzyme for deamination” (Colorado State University Research Foundation, priority 2001, dated 2012)

Legend:
[1] = target: T1, LinB haloalkane dehalogenase (Sphingobium indicum, UniProt D4Z2G1); assay: LinB biosensor sensitivity for halogenated hydrocarbons
T1 sequence (D4Z2G1 1-296): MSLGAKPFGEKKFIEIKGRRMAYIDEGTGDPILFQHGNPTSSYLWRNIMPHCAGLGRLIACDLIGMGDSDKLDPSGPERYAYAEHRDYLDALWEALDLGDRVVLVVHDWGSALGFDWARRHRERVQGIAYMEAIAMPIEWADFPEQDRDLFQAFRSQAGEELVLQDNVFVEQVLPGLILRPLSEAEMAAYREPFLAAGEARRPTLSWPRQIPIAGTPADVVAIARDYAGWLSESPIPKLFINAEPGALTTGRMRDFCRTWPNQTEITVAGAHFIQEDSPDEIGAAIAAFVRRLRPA
Excerpt: The haloalkane dehalogenase LinB was used to develop biosensors for several halogenated hydrocarbons.

E. coli pAQN (linB) = target: T2, E. coli pAQN (linB) (Sphingobium indicum, UniProt D4Z2G1); assay: Biosensor response to 1,2-dibromoethane measured repeatedly over 50 days; assay type: cell-based; settings: 5 ppb of 1,2-dibromoethane, in more than 50 days
T2 construct: expressed in transfected cells; host or cells: E. coli carrying plasmid pAQN
Experimental: FIG. 17 depicts a biosensor response to 5 μg/L 1,2-dibromoethane using E. coli pAQN (linB) as the biocomponent, measured repeatedly over 50 days, according to an embodiment.
The release of a proton from the dehalogenation reaction is detected as a pH change at the end of the optical fiber, and thus as a change in fluorescence intensity (FIG. 14). Fiber optic biosensors for 1,2-dichloroethane (DCA), ethylene dibromide (EDB), atrazine, 1-chlorohexane and Lindane (γ-hexachlorocyclohexane) have been developed (Campbell, 1998; Das, N., Development and Characterization of a Biosensor for Atrazine in Groundwater, Chemical Engineering. 2000, Colorado State University: Fort Collins). These biosensors have linear response ranges over several orders of magnitude in concentration, and detection in the ppt (ng/L) range has been achieved (FIG. 15). […] This fact, and the stability of the enzymes, allows the biosensors to retain activity for many weeks. In one test (FIG. 16), the biosensor response to 5 ppb of 1,2-dibromoethane declined by only 20% in more than 50 days. Sensitive measurement is still possible even at the end of the test; only a recalibration is required.

[2] = target: T1, LinB haloalkane dehalogenase; settings: reported by Damborsky et al. 2001; cited from earlier work
melamine deaminase TriA = target: T3, melamine deaminase TriA (Paracidovorax citrulli, UniProt Q9EYU0); assay: TriA (melamine deaminase) biosensor response, cells in calcium alginate on pH-sensitive optical fiber; assay type: cell-based, Escherchia coli DH5α pJS3
T3 construct: expressed in transfected cells; host or cells: Escherichia coli DH5α pJS3
Excerpt: Cells of Escherchia coli DH5α pJS3 (Seffernick et al., J. Bact. 183 (8), 2405-2410, 2001) were immobilized in calcium alginate on the tip of an optical fiber coated with a PVA-fluoresceinamine conjugate, a pH-sensitive fluorophore. The plasmid pJS3 contains the gene triA, and thus the E. coli cells can express the melamine deaminase TriA, which catalyzes the cleavage of one of the amine groups. The products of this reaction are ammeline (2-hydroxy-4,6-diamino-s-triazine) and ammonia.
The release of ammonia led to an increase in pH on the tip of the optical fiber, which was detected as an increase in the fluorescence of fluoresceinamine (FIG. 21).
The melamine deaminase biosensor was also responsive to the related amine-containing chemical 2-chloro-4,6-diamino-s-triazine (CAAT) (Table 12 and FIG. 22).

T3 sequence (Q9EYU0 whole entry): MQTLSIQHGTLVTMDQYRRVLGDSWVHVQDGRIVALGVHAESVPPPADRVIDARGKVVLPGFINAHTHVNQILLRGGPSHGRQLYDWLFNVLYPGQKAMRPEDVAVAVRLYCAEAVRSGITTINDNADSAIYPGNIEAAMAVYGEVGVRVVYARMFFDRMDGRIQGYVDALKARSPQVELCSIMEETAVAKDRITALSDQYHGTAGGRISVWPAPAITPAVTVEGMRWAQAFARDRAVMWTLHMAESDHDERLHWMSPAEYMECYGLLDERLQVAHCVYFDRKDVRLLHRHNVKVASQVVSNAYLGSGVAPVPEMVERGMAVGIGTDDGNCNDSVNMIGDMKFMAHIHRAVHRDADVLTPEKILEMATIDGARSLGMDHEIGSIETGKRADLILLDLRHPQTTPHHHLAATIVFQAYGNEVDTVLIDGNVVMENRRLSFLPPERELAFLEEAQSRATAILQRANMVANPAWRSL

| SMILES | Biosensor sensitivity (ΔV/ppb analyte) [1] | decline of biosensor response (E. coli pAQN (linB)) [%] | LinB activity (% of 1-chlorobenzene rate) [2] [%] | Response (count) (melamine deaminase TriA; 0.12 mg/L) | Response time (melamine deaminase TriA; 0.12 mg/L) [h] | Response (count) (melamine deaminase TriA; 1.21 mg/L) | Response time (melamine deaminase TriA; 1.21 mg/L) [h] |
| --- | --- | --- | --- | --- | --- | --- | --- |
| BrCCBr [1,2-dibromoethane] | 0.29 ΔV/ppb analyte | 20 | 355 |  |  |  |  |
| CCCCCCCl [1-chlorohexane] | 0.21 ΔV/ppb analyte |  | 145 |  |  |  |  |
| Nc1nc(N)nc(Cl)n1 [CAAT, 2-chloro-4,6-diamino-s-triazine] |  |  |  | 150 | 2 | 800 | 10 |
| Nc1nc(N)nc(N)n1 [Melamine, 2,4,6-triamino-1,3,5-triazine] |  |  |  | 1000 | 20 | 2700 | 16 |
